Measured values reported in ChEMBL document CHEMBL3272088, “Stereochemical studies of adrenergic drugs. Diastereomeric 2-amino-1-phenylcyclobutanols” (1976).
Active and inactive are the calls of the source. The rule behind the calls is not given here.

What was measured:
[1] = system: Vas deferens; assay: Intrinsic activity of (-)-norepinephrine-induced tissue contraction in albino Sprague-Dawley rat reserpine-treated adrenergically innervated vas deferens at 1 x 10^-5 to 3 x 10^-5 M after 15 mins by isotonic myograph analysis; format: functional, tissue-based
[2] = system: Vas deferens; assay: Intrinsic activity of (-)-norepinephrine-induced tissue contraction in albino Sprague-Dawley rat reserpine-treated adrenergically innervated vas deferens at 3 x 10^-6 M after 15 mins by isotonic myograph analysis; format: functional
[3] = Potentiation of (-)-norepinephrine-induced tissue contraction in albino Sprague-Dawley rat reserpine-treated adrenergically innervated vas deferens at 3 x 10^-6 M after 15 mins by isotonic myograph analysis; format: functional
[4] = organism: Rattus norvegicus; assay: Potentiation of (-)-norepinephrine-induced tissue contraction in albino Sprague-Dawley rat reserpine-treated adrenergically innervated vas deferens after 15 mins by isotonic myograph analysis; format: functional, tissue-based
[5] = system: Vas deferens; assay: Intrinsic activity of (-)-norepinephrine-induced tissue contraction in albino Sprague-Dawley rat reserpine-treated adrenergically innervated vas deferens after 15 mins by isotonic myograph analysis; format: functional, tissue-based
[6] = Potentiation of (-)-norepinephrine-induced tissue contraction in albino Sprague-Dawley rat reserpine-treated adrenergically innervated vas deferens at 3 x 10^-4 M after 15 mins by isotonic myograph analysis; format: functional
[7] = organism: Rattus norvegicus; assay: Potentiation of (-)-norepinephrine-induced tissue contraction in albino Sprague-Dawley rat reserpine-treated adrenergically innervated vas deferens at 3 x 10^-5 to 3 x 10^-4 M after 15 mins by isotonic myograph analysis; format: functional, tissue-based
[8] = Induction of tissue contraction in albino Sprague-Dawley rat reserpine-treated adrenergically innervated vas deferens at 3 x 10^-7 M by isotonic myograph analysis; format: functional

With `CC(N)C(O)c1ccccc1` (centres undefined) [PHENYLPROPANOLAMINE] the Activity [1] was “Active”, the Activity [2] was less than 5% and the Activity [3] was 66%.
For `N[C@@H]1CC[C@@]1(O)c1ccccc1`, the Activity [4] was “Dose-dependent effect”, the Activity [5] was “inactive” and the Activity [6] was 55%.
In the case of `N[C@@H]1CC[C@]1(O)c1ccccc1`, the Activity [7] is reported as “inactive” and the Activity [5] is reported as “inactive”.
`NCC(O)c1ccc(O)c(O)c1` (centres undefined) gave an Activity [8] of 10%.
